{
  "source": "patent US20260262643A1",
  "about": "“HERBICIDAL BENZOXAZINES” (FMC CORPORATION, priority 2022, published 2026)",
  "key": {"ryegrass, Italian [1]": {"test_system": "ryegrass, Italian", "experiment": "Test A postemergence", "type": "in vivo, Lolium multiflorum", "conditions": "postemergence, 10 days", "method_in_brief": "(§1)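 Plants were grown in loam and sand and treated preemergence or postemergence (one- to two-leaf stage, 2–10 cm) with compound in solvent plus surfactant. Response was scored against untreated controls after 10 greenhouse days, where 0 means no effect and 100 complete control.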"}, "ragweed [2]": {"test_system": "ragweed", "experiment": "Test A preemergence", "type": "in vivo, Ambrosia artemisiifolia", "conditions": "125 g ai/ha, visual injury after 10 days, 0 to 100 scale, 0 is no effect, 100 is complete control", "method_in_brief": "as §1"}, "horseweed": {"test_system": "horseweed", "experiment": "Test A postemergence", "type": "in vivo, Erigeron canadensis", "conditions": "postemergence, 10 days", "method_in_brief": "as §1"}, "ducksalad": {"test_system": "ducksalad", "experiment": "Test B flooded paddy test", "type": "in vivo, Heteranthera limosa", "conditions": "250 g ai/ha, Flood, 13 days, 0 to 100 scale (0 no effect, 100 complete control)", "method_in_brief": "(§2)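 Species grown to 2-leaf stage; pots flooded 3 cm above soil and compound applied directly to paddy water, depth maintained throughout. After 13 days in greenhouse, plants visually rated against controls on 0–100 scale (0 no effect, 100 complete control); dash means no result.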"}, "soybean [3]": {"test_system": "soybean", "experiment": "Test A postemergence", "type": "in vivo, Glycine max", "conditions": "postemergence, 10 days", "method_in_brief": "as §1"}, "ragweed [4]": {"test_system": "ragweed", "experiment": "Test A postemergence", "type": "in vivo, Ambrosia artemisiifolia", "conditions": "postemergence, 10 days", "method_in_brief": "as §1"}, "foxtail, giant [5]": {"test_system": "foxtail, giant", "experiment": "Test A postemergence", "type": "in vivo, Setaria faberi", "conditions": "postemergence, 10 days", "method_in_brief": "as §1"}, "blackgrass [6]": {"test_system": "blackgrass", "experiment": "Test A preemergence", "type": "in vivo, Alopecurus myosuroides", "method_in_brief": "as §1"}, "sedge, umbrella": {"test_system": "sedge, umbrella", "experiment": "Test B flooded paddy test", "type": "in vivo, Cyperus difformis", "conditions": "250 g ai/ha, Flood, 13 days, 0 to 100 scale (0 no effect, 100 complete control)", "method_in_brief": "as §2"}, "goosegrass [7]": {"test_system": "goosegrass", "experiment": "Test A postemergence", "type": "in vivo, Eleusine indica", "conditions": "postemergence, 10 days", "method_in_brief": "as §1"}, "pigweed, palmer [8]": {"test_system": "pigweed, palmer", "experiment": "Test A preemergence", "type": "in vivo, Amaranthus palmeri", "method_in_brief": "as §1"}, "kochia [9]": {"test_system": "kochia", "experiment": "Test A postemergence", "type": "in vivo, Bassia scoparia", "conditions": "postemergence, 10 days", "method_in_brief": "as §1"}, "foxtail, giant [10]": {"test_system": "foxtail, giant", "experiment": "Test A preemergence", "type": "in vivo, Setaria faberi", "method_in_brief": "as §1"}, "oat, wild [11]": {"test_system": "oat, wild", "experiment": "Test A postemergence", "type": "in vivo, Avena fatua", "conditions": "postemergence, 10 days", "method_in_brief": "as §1"}, "corn [12]": {"test_system": "corn", "experiment": "Test A preemergence", "type": "in vivo, Zea mays", "method_in_brief": "as §1"}, "oat, wild [13]": {"test_system": "oat, wild", "experiment": "Test A preemergence", "type": "in vivo, Avena fatua", "method_in_brief": "as §1"}, "pigweed, palmer [14]": {"test_system": "pigweed, palmer", "experiment": "Test A postemergence", "type": "in vivo, Amaranthus palmeri", "conditions": "postemergence, 10 days", "method_in_brief": "as §1"}, "rice": {"test_system": "rice", "experiment": "Test B flooded paddy test", "type": "in vivo, Oryza sativa", "conditions": "250 g ai/ha, Flood, 13 days, 0 to 100 scale (0 no effect, 100 complete control)", "method_in_brief": "as §2"}, "ryegrass, Italian [15]": {"test_system": "ryegrass, Italian", "experiment": "Test A preemergence", "type": "in vivo, Lolium multiflorum", "method_in_brief": "as §1"}, "goosegrass [16]": {"test_system": "goosegrass", "experiment": "Test A preemergence", "type": "in vivo, Eleusine indica", "method_in_brief": "as §1"}, "blackgrass [17]": {"test_system": "blackgrass", "experiment": "Test A postemergence", "type": "in vivo, Alopecurus myosuroides", "conditions": "postemergence, 10 days", "method_in_brief": "as §1"}, "kochia [18]": {"test_system": "kochia", "experiment": "Test A preemergence", "type": "in vivo, Bassia scoparia", "method_in_brief": "as §1"}, "corn [19]": {"test_system": "corn", "experiment": "Test A postemergence", "type": "in vivo, Zea mays", "conditions": "postemergence, 10 days", "method_in_brief": "as §1"}, "soybean [20]": {"test_system": "soybean", "experiment": "Test A preemergence", "type": "in vivo, Glycine max", "method_in_brief": "as §1"}, "wheat [21]": {"test_system": "wheat", "experiment": "Test A preemergence", "type": "in vivo, Triticum aestivum", "method_in_brief": "as §1"}, "wheat [22]": {"test_system": "wheat", "experiment": "Test A postemergence", "type": "in vivo, Triticum aestivum", "conditions": "postemergence, 10 days", "method_in_brief": "as §1"}, "barnyardgrass": {"test_system": "barnyardgrass", "experiment": "Test B flooded paddy test", "type": "in vivo, Echinochloa crus-galli", "conditions": "250 g ai/ha, Flood, 13 days, 0 to 100 scale (0 no effect, 100 complete control)", "method_in_brief": "as §2"}, "galium": {"test_system": "galium", "experiment": "Test A postemergence", "type": "in vivo, Galium aparine", "conditions": "postemergence, 10 days", "method_in_brief": "as §1"}, "[23]": {"conditions": "125 g ai/ha, 0 to 100 scale, 0 no effect, 100 complete control"}, "[24]": {"conditions": "500 g ai/ha, visual injury, 0 to 100 scale (0 no effect, 100 complete control)"}, "[25]": {"conditions": "125 g ai/ha, visual injury after 10 days, 0 to 100 scale, 0 is no effect, 100 is complete control"}, "[26]": {"conditions": "500 g ai/ha, 0 to 100 scale (0 no effect, 100 complete control), 10 days"}},
  "data": [
    {"smiles": "C#CCOc1ccc(-n2cnc(C(C)C)n2)cc1C(=O)N1C[C@H](C)Oc2c(Cl)cccc21", "note": "[Compound 107]", "values": [
      {"measurement": "Ryegrass, Italian plant response rating", "setting": "ryegrass, Italian [1]; [23]", "result": 20},
      {"measurement": "Plant response rating, Ryegrass, Italian", "setting": "ryegrass, Italian [1]; [24]", "result": 60},
      {"measurement": "Plant response rating, Ragweed", "setting": "ragweed [2]", "result": 30},
      {"measurement": "Horseweed plant response rating", "setting": "horseweed; [23]", "result": 20},
      {"measurement": "Plant response rating, Horseweed", "setting": "horseweed; [24]", "result": 30},
      {"measurement": "Plant response rating, Ducksalad", "setting": "ducksalad", "result": 25},
      {"measurement": "Soybean plant response rating", "setting": "soybean [3]; [23]", "result": 100},
      {"measurement": "Plant response rating, Soybean", "setting": "soybean [3]; [24]", "result": 100},
      {"measurement": "Ragweed plant response rating", "setting": "ragweed [4]; [23]", "result": 50},
      {"measurement": "Plant response rating, Ragweed", "setting": "ragweed [4]; [24]", "result": 70},
      {"measurement": "Foxtail, Giant plant response rating", "setting": "foxtail, giant [5]; [23]", "result": 90},
      {"measurement": "Plant response rating, Foxtail, Giant", "setting": "foxtail, giant [5]; [24]", "result": 100},
      {"measurement": "Plant response rating, Blackgrass", "setting": "blackgrass [6]; [25]", "result": 20},
      {"measurement": "Plant response rating, Blackgrass", "setting": "blackgrass [6]; [26]", "result": 40},
      {"measurement": "Plant response rating, Sedge, Umbrella", "setting": "sedge, umbrella", "result": 90},
      {"measurement": "Goosegrass plant response rating", "setting": "goosegrass [7]; [23]", "result": 70},
      {"measurement": "Plant response rating, Goosegrass", "setting": "goosegrass [7]; [24]", "result": 100},
      {"measurement": "Plant response rating, Pigweed, Palmer", "setting": "pigweed, palmer [8]; [25]", "result": 100},
      {"measurement": "Plant response rating, Pigweed, Palmer", "setting": "pigweed, palmer [8]; [26]", "result": 100},
      {"measurement": "Kochia plant response rating", "setting": "kochia [9]; [23]", "result": 80},
      {"measurement": "Plant response rating, Kochia", "setting": "kochia [9]; [24]", "result": 90},
      {"measurement": "Plant response rating, Foxtail, Giant", "setting": "foxtail, giant [10]; [25]", "result": 100},
      {"measurement": "Plant response rating, Foxtail, Giant", "setting": "foxtail, giant [10]; [26]", "result": 100},
      {"measurement": "Oat, Wild plant response rating", "setting": "oat, wild [11]; [23]", "result": 30},
      {"measurement": "Plant response rating, Oat, Wild", "setting": "oat, wild [11]; [24]", "result": 70},
      {"measurement": "Plant response rating, Corn", "setting": "corn [12]; [25]", "result": 10},
      {"measurement": "Plant response rating, Corn", "setting": "corn [12]; [26]", "result": 50},
      {"measurement": "Plant response rating, Oat, Wild", "setting": "oat, wild [13]; [25]", "result": 60},
      {"measurement": "Plant response rating, Oat, Wild", "setting": "oat, wild [13]; [26]", "result": 70},
      {"measurement": "Pigweed, Palmer plant response rating", "setting": "pigweed, palmer [14]; [23]", "result": 90},
      {"measurement": "Plant response rating, Pigweed, Palmer", "setting": "pigweed, palmer [14]; [24]", "result": 100},
      {"measurement": "Plant response rating, Rice", "setting": "rice", "result": 20},
      {"measurement": "Plant response rating, Ryegrass, Italian", "setting": "ryegrass, Italian [15]; [25]", "result": 80},
      {"measurement": "Plant response rating, Ryegrass, Italian", "setting": "ryegrass, Italian [15]; [26]", "result": 100},
      {"measurement": "Plant response rating, Goosegrass", "setting": "goosegrass [16]; [25]", "result": 100},
      {"measurement": "Plant response rating, Goosegrass", "setting": "goosegrass [16]; [26]", "result": 100},
      {"measurement": "Blackgrass plant response rating", "setting": "blackgrass [17]; [23]", "result": 60},
      {"measurement": "Plant response rating, Blackgrass", "setting": "blackgrass [17]; [24]", "result": 80},
      {"measurement": "Plant response rating, Kochia", "setting": "kochia [18]; [25]", "result": 20},
      {"measurement": "Plant response rating, Kochia", "setting": "kochia [18]; [26]", "result": 80},
      {"measurement": "Corn plant response rating", "setting": "corn [19]; [23]", "result": 70},
      {"measurement": "Plant response rating, Corn", "setting": "corn [19]; [24]", "result": 80},
      {"measurement": "Plant response rating, Soybean", "setting": "soybean [20]; [25]", "result": 50},
      {"measurement": "Plant response rating, Soybean", "setting": "soybean [20]; [26]", "result": 70},
      {"measurement": "Plant response rating, Wheat", "setting": "wheat [21]; [25]", "result": 0},
      {"measurement": "Plant response rating, Wheat", "setting": "wheat [21]; [26]", "result": 40},
      {"measurement": "Wheat plant response rating", "setting": "wheat [22]; [23]", "result": 30},
      {"measurement": "Plant response rating, Wheat", "setting": "wheat [22]; [24]", "result": 30},
      {"measurement": "Plant response rating, Barnyardgrass", "setting": "barnyardgrass", "result": 70},
      {"measurement": "Galium plant response rating", "setting": "galium; [23]", "result": 100},
      {"measurement": "Plant response rating, Galium", "setting": "galium; [24]", "result": 100}
    ]}
  ]
}
